Measurements reported in patent publication US20200405697A1, “Antitumor Agent” (Taiho Pharmaceutical Co., Ltd, priority 2017, published 2020).

Columns and labels:
[1] = test system: CFPAC-1 (Human pancreatic cancer cell line); experiment: Effect of combination of sulfonamide compound and other antitumor agent (CellTiter-Glo, combination index): CFPAC-1;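 also: cells exposed to both agents together for 3 days, viability read by luminescence, normalized to vehicle-treated control wells, mean of triplicate wells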
Protocol: (§1) Each cell line was seeded at 90 L/well to a 96-well culture plate (Thermo Fisher Scientific, Inc.) according to the above tables. The cell-seeded plate was cultured in an incubator set to 37° C. and 500 CO2. On the day following seeding, varying concentrations of the sulfonamide compound and the other antitumor agent were added in combination to the cells. […] The serial dilutions of each compound, or DW was added at 5μL/well to the plate such that each compound and DW, or the sulfonamide compound and the other antitumor agent were combined. […] The plate after the addition was cultured at 37° C. for 3 days under 5% CO2 conditions.
(§2) Three days later, CellTiter-Glo(R) 2.0 Reagent (Promega Corporation) was added at 100 μL/well, and the amount of luminescence was measured using a plate reader EnSpire(R) Multimode Plate Reader (PerkinElmer Co., Ltd.).
(§3) An average value from 3 wells was calculated as to each drug condition from the obtained data, and cell survival rate normalized against control wells supplemented with the vehicle (DW) was calculated. A Fa (fractional inhibition) value was calculated by subtracting the cell survival rate from 1.

[2] = test system: A549 (Human lung cancer cell line); experiment: Effect of combination of sulfonamide compound and other antitumor agent (CellTiter-Glo, combination index): A549
Protocol: as §1, §2, §3

[3] = test system: MV-4-11 (Human blood cancer cell line); experiment: Effect of combination of sulfonamide compound and other antitumor agent (CellTiter-Glo, combination index): MV-4-11
Protocol: as §1, §2, §3

[4] = Example Compound 5 1050 nM + Gemcitabine 5.28 nM
[5] = Example Compound 14 2080 nM + Gemcitabine 5.28 nM
[6] = Example Compound 14 3120 nM + Gemcitabine 7.92 nM
[7] = Example Compound 209A 508 nM + Gemcitabine 5.28 nM
[8] = Example Compound 235A 722 nM + Gemcitabine 5.28 nM
[9] = Example Compound 14 4420 nM + Gemcitabine 8.38 nM
[10] = Example Compound 209A 635 nM + Gemcitabine 5.60 nM
[11] = Example Compound 209A 952 nM + Gemcitabine 8.39 nM
[12] = Example Compound 235A 780 nM + Gemcitabine 5.60 nM
[13] = Example Compound 235A 1170 nM + Gemcitabine 8.40 nM
[14] = Example Compound 5 466 nM + SCH900776 253 nM
[15] = Example Compound 5 700 nM + SCH900776 379 nM
[16] = Example Compound 14 925 nM + SCH900776 253 nM
[17] = Example Compound 14 1390 nM + SCH900776 380 nM
[18] = Example Compound 14 2080 nM + SCH900776 569 nM
[19] = Example Compound 209A 226 nM + SCH900776 253 nM
[20] = Example Compound 209A 508 nM + SCH900776 568 nM
[21] = Example Compound 235A 321 nM + SCH900776 253 nM
[22] = Example Compound 235A 481 nM + SCH900776 379 nM
[23] = Example Compound 235A 722 nM + SCH900776 569 nM
[24] = Example Compound 14 874 nM + SCH900776 909 nM
[25] = Example Compound 14 1310 nM + SCH900776 1360 nM
[26] = Example Compound 14 1970 nM + SCH900776 2050 nM
[27] = Example Compound 14 2950 nM + SCH900776 3070 nM
[28] = Example Compound 209A 188 nM + SCH900776 909 nM
[29] = Example Compound 209A 282 nM + SCH900776 1360 nM
[30] = Example Compound 209A 635 nM + SCH900776 3070 nM
[31] = Example Compound 235A 231 nM + SCH900776 909 nM
[32] = Example Compound 235A 346 nM + SCH900776 1360 nM
[33] = Example Compound 235A 520 nM + SCH900776 2050 nM
[34] = Example Compound 235A 780 nM + SCH900776 3070 nM
[35] = Example Compound 235A 1170 nM + SCH900776 4610 nM
[36] = Example Compound 5 247 nM + Cytarabine 175 nM
[37] = Example Compound 5 555 nM + Cytarabine 393 nM
[38] = Example Compound 5 833 nM + Cytarabine 590 nM
[39] = Example Compound 5 1250 nM + Cytarabine 885 nM
[40] = Example Compound 14 519 nM + Cytarabine 175 nM
[41] = Example Compound 14 1170 nM + Cytarabine 394 nM
[42] = Example Compound 14 1750 nM + Cytarabine 589 nM
[43] = Example Compound 14 2630 nM + Cytarabine 886 nM
[44] = Example Compound 209A 96.6 nM + Cytarabine 175 nM
[45] = Example Compound 209A 217 nM + Cytarabine 393 nM
[46] = Example Compound 209A 326 nM + Cytarabine 590 nM
[47] = Example Compound 235A 90.1 nM + Cytarabine 116 nM
[48] = Example Compound 235A 135 nM + Cytarabine 174 nM
[49] = Example Compound 235A 304 nM + Cytarabine 393 nM
[50] = Example Compound 235A 456 nM + Cytarabine 589 nM
[51] = Example Compound 235A 684 nM + Cytarabine 884 nM
[52] = Example Compound 14 874 nM + Cytarabine 72.2 nM
[53] = Example Compound 14 1310 nM + Cytarabine 108 nM
[54] = Example Compound 14 1970 nM + Cytarabine 163 nM
[55] = Example Compound 14 2950 nM + Cytarabine 244 nM
[56] = Example Compound 14 4420 nM + Cytarabine 365 nM
[57] = Example Compound 209A 188 nM + Cytarabine 72.2 nM
[58] = Example Compound 209A 282 nM + Cytarabine 108 nM
[59] = Example Compound 209A 635 nM + Cytarabine 244 nM
[60] = Example Compound 209A 952 nM + Cytarabine 365 nM
[61] = Example Compound 235A 780 nM + Cytarabine 111 nM
[62] = Example Compound 235A 1170 nM + Cytarabine 166 nM
[63] = Example Compound 235A 1750 nM + Cytarabine 249 nM

Nc1ccn([C@@H]2O[C@H](CO)[C@@H](O)C2(F)F)c(=O)n1 [Gemcitabine, gemcitabine]
CI value [1, 4]: 0.788
Fa value [1, 4]: 0.6974
CI value [1, 5]: 0.756
Fa value [1, 5]: 0.6749
CI value [1, 6]: 0.752
Fa value [1, 6]: 0.7790
CI value [1, 7]: 0.736
Fa value [1, 7]: 0.6998
CI value [1, 8]: 0.722
Fa value [1, 8]: 0.6762
CI value [2, 9]: 0.752
Fa value [2, 9]: 0.8565
CI value [2, 10]: 0.792
Fa value [2, 10]: 0.7031
CI value [2, 11]: 0.791
Fa value [2, 11]: 0.8749
CI value [2, 12]: 0.844
Fa value [2, 12]: 0.6511
CI value [2, 13]: 0.714
Fa value [2, 13]: 0.8624

Cn1cc(-c2cnn3c(N)c(Br)c([C@@H]4CCCNC4)nc23)cn1 [SCH900776]
CI value [1, 14]: 0.283
Fa value [1, 14]: 0.6428
CI value [1, 15]: 0.283
Fa value [1, 15]: 0.7803
CI value [1, 16]: 0.465
Fa value [1, 16]: 0.4714
CI value [1, 17]: 0.322
Fa value [1, 17]: 0.7231
CI value [1, 18]: 0.409
Fa value [1, 18]: 0.7671
CI value [1, 19]: 0.385
Fa value [1, 19]: 0.5579
CI value [1, 20]: 0.474
Fa value [1, 20]: 0.7649
CI value [1, 21]: 0.474
Fa value [1, 21]: 0.4978
CI value [1, 22]: 0.382
Fa value [1, 22]: 0.7223
CI value [1, 23]: 0.484
Fa value [1, 23]: 0.7722
CI value [2, 24]: 0.194
Fa value [2, 24]: 0.6512
CI value [2, 25]: 0.184
Fa value [2, 25]: 0.7883
CI value [2, 26]: 0.191
Fa value [2, 26]: 0.8714
CI value [2, 27]: 0.271
Fa value [2, 27]: 0.8814
CI value [2, 28]: 0.180
Fa value [2, 28]: 0.6553
CI value [2, 29]: 0.170
Fa value [2, 29]: 0.7965
CI value [2, 30]: 0.273
Fa value [2, 30]: 0.8744
CI value [2, 31]: 0.262
Fa value [2, 31]: 0.6135
CI value [2, 32]: 0.280
Fa value [2, 32]: 0.7038
CI value [2, 33]: 0.275
Fa value [2, 33]: 0.8035
CI value [2, 34]: 0.275
Fa value [2, 34]: 0.8771
CI value [2, 35]: 0.430
Fa value [2, 35]: 0.8705

Nc1ccn([C@@H]2O[C@H](CO)[C@@H](O)[C@@H]2O)c(=O)n1 [Cytarabine, cytarabine]
CI value [3, 36]: 0.638
Fa value [3, 36]: 0.4093
CI value [3, 37]: 0.553
Fa value [3, 37]: 0.9212
CI value [3, 38]: 0.366
Fa value [3, 38]: 0.9948
CI value [3, 39]: 0.386
Fa value [3, 39]: 0.9986
CI value [3, 40]: 0.766
Fa value [3, 40]: 0.2908
CI value [3, 41]: 0.599
Fa value [3, 41]: 0.8743
CI value [3, 42]: 0.387
Fa value [3, 42]: 0.9860
CI value [3, 43]: 0.269
Fa value [3, 43]: 0.9984
CI value [3, 44]: 0.739
Fa value [3, 44]: 0.5055
CI value [3, 45]: 0.510
Fa value [3, 45]: 0.9736
CI value [3, 46]: 0.330
Fa value [3, 46]: 0.9981
CI value [3, 47]: 0.740
Fa value [3, 47]: 0.1704
CI value [3, 48]: 0.645
Fa value [3, 48]: 0.4683
CI value [3, 49]: 0.510
Fa value [3, 49]: 0.9522
CI value [3, 50]: 0.365
Fa value [3, 50]: 0.9958
CI value [3, 51]: 0.374
Fa value [3, 51]: 0.9989
CI value [2, 52]: 0.670
Fa value [2, 52]: 0.3745
CI value [2, 53]: 0.790
Fa value [2, 53]: 0.4356
CI value [2, 54]: 0.616
Fa value [2, 54]: 0.6170
CI value [2, 55]: 0.498
Fa value [2, 55]: 0.7754
CI value [2, 56]: 0.490
Fa value [2, 56]: 0.8591
CI value [2, 57]: 0.777
Fa value [2, 57]: 0.3588
CI value [2, 58]: 0.759
Fa value [2, 58]: 0.4675
CI value [2, 59]: 0.474
Fa value [2, 59]: 0.7994
CI value [2, 60]: 0.574
Fa value [2, 60]: 0.8410
CI value [2, 61]: 0.878
Fa value [2, 61]: 0.4015
CI value [2, 62]: 0.693
Fa value [2, 62]: 0.6327
CI value [2, 63]: 0.581
Fa value [2, 63]: 0.8184
